Where two headings read alike, the source gives them in different places.

Data set [1] deals with Skelotonema Costatum. Particulars: in vivo.
A short description of data set [2]: Biodegradability, OECD 306 test. The following applies: OECD 306, 28 days.
The test system of data set [3] is Skelotonema Costatum. Briefly: Ecotoxicology, Protocol ISO 10253. The following applies: for EC50: 72 hrs.

As to `CCCCCCCC/C=C\CCCCCCCCN1CC(C(=O)O)CC1=O.NCCO` (centres unmarked) [OleylPyCOO-MEA, N-oleyl(pyrrolidine-2-one)-4-carboxylic acid/ethanol amine salt], in the data set on Skelotonema Costatum [1], the “72 h EC90” value amounted to 0.58 µg/mL and the “NOEC@72 h” value stood at 0.32 mg/L. In addition, the “48 h NOEC” value in the data set on Artica Tonsa (48 h) was found to be 0.30 mg/L. Moreover, the “48 h LC90” value with Artica Tonsa (48 h, first figure of LC90/100) was 4.2 µg/mL. Also, in the data set with Artica Tonsa (48 h, second figure of LC90/100), the “48 h LC100” value stood at 9.0 mg/L. The 50% lethal concentration (LC50) in the data set with Artica Tonsa (48 hrs) stood at 2.8 µg/mL. Besides, in the data set on Corophium Volulator (10 days), the “LC5@10 days” value came to 433 mg/kg. Besides, the “NOEC @ 10 days” value in the data set with Corophium Volulator (in vivo) came out at 160 mg/kg. Further, the “Degradation (biodegradability)” value in data set [2] is 69%. The concentration giving a half-maximal response (EC50) in the data set with Skelotonema Costatum [3] was 0.44 µg/mL.

Consider “N-oleyl(pyrroildine-2-one)-4-carboxylic acid/morpholine distillation residue salt [OleylPyCOO-AmixM]”, for which the “NOEC @ 10 days” value in the data set with Corophium Volulator (10 days) was determined as 524 mg/kg. For the same compound, in the data set with Skelotonema Costatum [3] (72 h), the “72 h EC90” value stood at 3.0 µg/mL and the “NOEC@72 h” value is 0.56 mg/L. The same compound showed a half-maximal effective concentration (EC50) in the data set on Skelotonema Costatum [3] of 1.6 µg/mL.

The values are drawn from patent publication US20120088698A1, “WATER IN OIL EMULSION, METHOD FOR THE PRODUCTION THEREOF” (CLARIANT FINANCE (BVI) LIMITED, priority 2009, published 2012).
